Experimental data taken from patent publication US10670605B2, “Cysteine reactive probes and uses thereof” (The Scripps Research Institute, priority 2015, dated 2020).

Legend:
Assay in all cases: Competitive isoTOP-ABPP in situ (fragment-treated cells)
Type in all cases: cell-based
[1] = target: cysteines in MDA-MB-231 and Ramos cells (Homo sapiens, UniProt O60610); conditions: for isoTOP-ABPP ratio O60610_C1227: 200 μM, insitu
[2] = target: T1, cysteines in MDA-MB-231 and Ramos cells (Homo sapiens, UniProt P23919)
T1 sequence (P23919 1-212): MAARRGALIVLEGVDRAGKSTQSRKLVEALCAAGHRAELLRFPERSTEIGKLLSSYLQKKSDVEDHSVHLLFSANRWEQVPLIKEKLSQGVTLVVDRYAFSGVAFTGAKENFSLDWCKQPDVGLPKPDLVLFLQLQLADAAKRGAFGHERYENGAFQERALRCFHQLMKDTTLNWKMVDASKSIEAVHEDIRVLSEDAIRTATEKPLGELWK

[3] = target: T2, cysteines in MDA-MB-231 and Ramos cells (Homo sapiens, UniProt P52597); conditions: for isoTOP-ABPP ratio P52597_C267: 200 μM, insitu
T2 sequence (P52597 1-415): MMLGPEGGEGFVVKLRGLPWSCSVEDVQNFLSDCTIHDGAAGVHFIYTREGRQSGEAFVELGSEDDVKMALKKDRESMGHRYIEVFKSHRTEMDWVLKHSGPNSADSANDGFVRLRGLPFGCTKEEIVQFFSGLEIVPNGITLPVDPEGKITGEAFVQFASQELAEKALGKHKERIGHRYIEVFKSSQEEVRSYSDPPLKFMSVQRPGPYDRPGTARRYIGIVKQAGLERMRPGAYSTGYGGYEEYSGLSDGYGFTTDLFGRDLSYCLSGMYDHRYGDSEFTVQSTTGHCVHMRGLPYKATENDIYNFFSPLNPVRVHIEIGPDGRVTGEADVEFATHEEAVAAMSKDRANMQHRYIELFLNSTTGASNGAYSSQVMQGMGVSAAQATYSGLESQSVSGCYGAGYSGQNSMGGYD

[4] = target: T3, cysteines in MDA-MB-231 and Ramos cells (Homo sapiens, UniProt P57764); conditions: for isoTOP-ABPP ratio P57764_C268: 200 μM, insitu
T3 sequence (P57764 1-484): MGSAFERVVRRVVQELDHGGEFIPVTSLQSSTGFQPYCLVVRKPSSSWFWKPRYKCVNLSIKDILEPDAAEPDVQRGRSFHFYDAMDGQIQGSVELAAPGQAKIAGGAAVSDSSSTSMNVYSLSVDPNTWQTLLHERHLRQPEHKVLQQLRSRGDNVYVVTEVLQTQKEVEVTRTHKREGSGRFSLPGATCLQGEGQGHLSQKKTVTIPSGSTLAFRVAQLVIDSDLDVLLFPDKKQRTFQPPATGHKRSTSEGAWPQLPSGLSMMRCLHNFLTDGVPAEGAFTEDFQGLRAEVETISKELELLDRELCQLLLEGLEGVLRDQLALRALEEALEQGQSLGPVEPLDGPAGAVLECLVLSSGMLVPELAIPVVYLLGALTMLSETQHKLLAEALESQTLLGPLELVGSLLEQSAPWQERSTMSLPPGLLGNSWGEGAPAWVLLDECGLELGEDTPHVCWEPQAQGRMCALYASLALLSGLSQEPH

[5] = target: cysteines in MDA-MB-231 and Ramos cells (Homo sapiens, UniProt Q14997); conditions: for isoTOP-ABPP ratio Q14997_C1840: 200 μM, insitu
[6] = target: T4, cysteines in MDA-MB-231 and Ramos cells (Homo sapiens, UniProt Q15084); conditions: for isoTOP-ABPP ratio Q15084_C55 / isoTOP-ABPP ratio, Q15084_C190: 200 μM, insitu, 231
T4 sequence (Q15084 20-440): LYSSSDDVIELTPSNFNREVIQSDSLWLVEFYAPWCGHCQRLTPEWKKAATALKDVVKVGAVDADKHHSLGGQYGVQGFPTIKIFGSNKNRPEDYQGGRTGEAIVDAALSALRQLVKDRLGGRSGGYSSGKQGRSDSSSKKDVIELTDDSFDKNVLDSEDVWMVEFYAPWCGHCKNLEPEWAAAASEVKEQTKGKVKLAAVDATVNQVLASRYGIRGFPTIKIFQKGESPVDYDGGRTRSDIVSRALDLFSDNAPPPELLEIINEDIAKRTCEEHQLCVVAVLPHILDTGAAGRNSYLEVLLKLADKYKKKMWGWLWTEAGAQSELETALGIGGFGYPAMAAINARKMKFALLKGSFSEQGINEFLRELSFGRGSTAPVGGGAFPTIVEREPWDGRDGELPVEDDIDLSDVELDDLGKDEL

[7] = target: T5, cysteines in MDA-MB-231 and Ramos cells (Homo sapiens, UniProt Q15233); conditions: for isoTOP-ABPP ratio Q15233_C145: 200 μM, insitu
T5 sequence (Q15233 1-471): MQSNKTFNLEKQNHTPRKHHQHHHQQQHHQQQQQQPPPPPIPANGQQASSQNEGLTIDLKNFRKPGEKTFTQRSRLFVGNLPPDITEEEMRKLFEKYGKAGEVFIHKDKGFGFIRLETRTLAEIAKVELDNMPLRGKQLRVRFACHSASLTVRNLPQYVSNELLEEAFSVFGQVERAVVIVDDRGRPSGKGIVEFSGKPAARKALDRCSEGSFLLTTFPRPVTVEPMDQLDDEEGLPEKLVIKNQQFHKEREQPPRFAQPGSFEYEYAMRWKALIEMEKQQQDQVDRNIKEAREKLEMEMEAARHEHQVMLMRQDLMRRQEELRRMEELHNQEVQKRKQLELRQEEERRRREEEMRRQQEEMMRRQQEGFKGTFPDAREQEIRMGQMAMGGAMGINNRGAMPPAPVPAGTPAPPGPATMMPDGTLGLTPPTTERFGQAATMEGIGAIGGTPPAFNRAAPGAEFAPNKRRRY

[8] = target: T6, cysteines in MDA-MB-231 and Ramos cells (Homo sapiens, UniProt Q99757); conditions: for isoTOP-ABPP ratio Q99757_C90: 200 μM, insitu, 231
T6 sequence (Q99757 60-166): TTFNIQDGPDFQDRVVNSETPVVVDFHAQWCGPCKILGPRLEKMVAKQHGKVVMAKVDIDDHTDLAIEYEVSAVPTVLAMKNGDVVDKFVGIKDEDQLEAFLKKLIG

[9] = target: T7, cysteines in MDA-MB-231 and Ramos cells (Homo sapiens, UniProt Q9Y277); conditions: for isoTOP-ABPP ratio Q9Y277_C65: 200 μM, insitu
T7 sequence (Q9Y277 1-283): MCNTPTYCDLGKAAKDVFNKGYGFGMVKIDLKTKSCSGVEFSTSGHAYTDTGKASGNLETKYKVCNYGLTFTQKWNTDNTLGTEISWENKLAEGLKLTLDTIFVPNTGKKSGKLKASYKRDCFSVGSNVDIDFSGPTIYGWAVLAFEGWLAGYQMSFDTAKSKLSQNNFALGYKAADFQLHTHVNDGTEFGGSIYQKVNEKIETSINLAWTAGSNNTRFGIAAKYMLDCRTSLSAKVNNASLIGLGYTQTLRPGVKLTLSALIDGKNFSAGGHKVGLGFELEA

[10] = target: cysteines in MDA-MB-231 and Ramos cells (Homo sapiens, UniProt Q9Y696); conditions: for isoTOP-ABPP ratio Q9Y696_C35: 200 μM, insitu, 231
Chain of cysteines in MDA-MB-231 and Ramos cells (Homo sapiens, UniProt Q9Y696) (Q9Y696 whole entry): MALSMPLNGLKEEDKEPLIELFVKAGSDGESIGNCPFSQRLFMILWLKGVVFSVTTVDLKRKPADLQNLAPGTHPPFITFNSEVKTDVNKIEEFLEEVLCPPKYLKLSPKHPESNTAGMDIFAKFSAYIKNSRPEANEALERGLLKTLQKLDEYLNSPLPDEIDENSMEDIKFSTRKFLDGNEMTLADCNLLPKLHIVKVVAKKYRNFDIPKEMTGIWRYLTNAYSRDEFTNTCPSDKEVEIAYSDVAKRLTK

Chain of cysteines in MDA-MB-231 and Ramos cells (Homo sapiens, UniProt Q14997) (Q14997 whole entry): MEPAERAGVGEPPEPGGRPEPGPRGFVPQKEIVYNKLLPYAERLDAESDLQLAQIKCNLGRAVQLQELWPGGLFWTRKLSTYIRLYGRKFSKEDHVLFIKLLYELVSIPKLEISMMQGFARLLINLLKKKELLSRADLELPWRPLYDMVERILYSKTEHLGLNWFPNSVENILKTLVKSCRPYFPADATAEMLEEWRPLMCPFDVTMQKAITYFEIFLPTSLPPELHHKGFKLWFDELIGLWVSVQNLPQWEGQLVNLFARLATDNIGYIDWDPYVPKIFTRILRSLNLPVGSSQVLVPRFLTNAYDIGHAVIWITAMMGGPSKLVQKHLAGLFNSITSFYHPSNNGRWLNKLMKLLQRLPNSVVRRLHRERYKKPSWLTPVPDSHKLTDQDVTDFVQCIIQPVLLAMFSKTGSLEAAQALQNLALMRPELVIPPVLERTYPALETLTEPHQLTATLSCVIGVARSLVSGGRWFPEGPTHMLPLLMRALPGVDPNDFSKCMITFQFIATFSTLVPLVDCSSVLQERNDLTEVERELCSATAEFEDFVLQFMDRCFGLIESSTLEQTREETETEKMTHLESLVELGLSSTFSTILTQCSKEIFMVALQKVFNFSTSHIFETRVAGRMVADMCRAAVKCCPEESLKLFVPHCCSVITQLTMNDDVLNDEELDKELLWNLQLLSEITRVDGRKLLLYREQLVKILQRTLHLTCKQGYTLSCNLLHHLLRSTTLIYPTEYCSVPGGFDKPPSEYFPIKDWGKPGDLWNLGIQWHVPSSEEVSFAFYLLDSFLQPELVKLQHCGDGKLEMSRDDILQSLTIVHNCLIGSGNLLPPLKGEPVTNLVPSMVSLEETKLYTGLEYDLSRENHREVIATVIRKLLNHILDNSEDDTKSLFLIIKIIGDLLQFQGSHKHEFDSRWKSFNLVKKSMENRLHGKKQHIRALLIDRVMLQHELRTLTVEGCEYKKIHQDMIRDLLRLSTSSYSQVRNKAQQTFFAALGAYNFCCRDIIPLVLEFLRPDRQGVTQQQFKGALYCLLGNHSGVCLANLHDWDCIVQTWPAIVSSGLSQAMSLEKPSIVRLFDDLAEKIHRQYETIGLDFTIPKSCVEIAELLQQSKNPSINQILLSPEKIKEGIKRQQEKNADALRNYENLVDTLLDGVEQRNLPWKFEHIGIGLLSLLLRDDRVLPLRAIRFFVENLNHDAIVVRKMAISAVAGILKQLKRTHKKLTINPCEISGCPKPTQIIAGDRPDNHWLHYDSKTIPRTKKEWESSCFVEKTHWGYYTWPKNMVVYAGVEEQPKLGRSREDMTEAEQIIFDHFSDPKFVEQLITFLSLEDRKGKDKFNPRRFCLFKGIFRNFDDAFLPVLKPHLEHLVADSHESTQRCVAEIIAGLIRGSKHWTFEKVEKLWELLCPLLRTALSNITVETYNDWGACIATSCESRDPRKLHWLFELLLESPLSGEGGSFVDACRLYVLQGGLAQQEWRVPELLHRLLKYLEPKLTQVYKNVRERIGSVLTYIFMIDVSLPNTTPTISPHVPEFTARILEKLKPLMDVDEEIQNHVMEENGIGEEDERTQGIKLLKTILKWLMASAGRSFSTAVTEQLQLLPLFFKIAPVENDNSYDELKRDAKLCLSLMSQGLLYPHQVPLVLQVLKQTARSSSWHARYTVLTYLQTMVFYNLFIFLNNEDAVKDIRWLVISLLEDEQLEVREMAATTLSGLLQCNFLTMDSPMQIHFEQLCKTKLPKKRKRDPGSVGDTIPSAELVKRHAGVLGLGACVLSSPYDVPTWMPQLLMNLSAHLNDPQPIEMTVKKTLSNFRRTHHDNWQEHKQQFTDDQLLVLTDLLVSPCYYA
Chain of cysteines in MDA-MB-231 and Ramos cells (Homo sapiens, UniProt O60610) (O60610 whole entry): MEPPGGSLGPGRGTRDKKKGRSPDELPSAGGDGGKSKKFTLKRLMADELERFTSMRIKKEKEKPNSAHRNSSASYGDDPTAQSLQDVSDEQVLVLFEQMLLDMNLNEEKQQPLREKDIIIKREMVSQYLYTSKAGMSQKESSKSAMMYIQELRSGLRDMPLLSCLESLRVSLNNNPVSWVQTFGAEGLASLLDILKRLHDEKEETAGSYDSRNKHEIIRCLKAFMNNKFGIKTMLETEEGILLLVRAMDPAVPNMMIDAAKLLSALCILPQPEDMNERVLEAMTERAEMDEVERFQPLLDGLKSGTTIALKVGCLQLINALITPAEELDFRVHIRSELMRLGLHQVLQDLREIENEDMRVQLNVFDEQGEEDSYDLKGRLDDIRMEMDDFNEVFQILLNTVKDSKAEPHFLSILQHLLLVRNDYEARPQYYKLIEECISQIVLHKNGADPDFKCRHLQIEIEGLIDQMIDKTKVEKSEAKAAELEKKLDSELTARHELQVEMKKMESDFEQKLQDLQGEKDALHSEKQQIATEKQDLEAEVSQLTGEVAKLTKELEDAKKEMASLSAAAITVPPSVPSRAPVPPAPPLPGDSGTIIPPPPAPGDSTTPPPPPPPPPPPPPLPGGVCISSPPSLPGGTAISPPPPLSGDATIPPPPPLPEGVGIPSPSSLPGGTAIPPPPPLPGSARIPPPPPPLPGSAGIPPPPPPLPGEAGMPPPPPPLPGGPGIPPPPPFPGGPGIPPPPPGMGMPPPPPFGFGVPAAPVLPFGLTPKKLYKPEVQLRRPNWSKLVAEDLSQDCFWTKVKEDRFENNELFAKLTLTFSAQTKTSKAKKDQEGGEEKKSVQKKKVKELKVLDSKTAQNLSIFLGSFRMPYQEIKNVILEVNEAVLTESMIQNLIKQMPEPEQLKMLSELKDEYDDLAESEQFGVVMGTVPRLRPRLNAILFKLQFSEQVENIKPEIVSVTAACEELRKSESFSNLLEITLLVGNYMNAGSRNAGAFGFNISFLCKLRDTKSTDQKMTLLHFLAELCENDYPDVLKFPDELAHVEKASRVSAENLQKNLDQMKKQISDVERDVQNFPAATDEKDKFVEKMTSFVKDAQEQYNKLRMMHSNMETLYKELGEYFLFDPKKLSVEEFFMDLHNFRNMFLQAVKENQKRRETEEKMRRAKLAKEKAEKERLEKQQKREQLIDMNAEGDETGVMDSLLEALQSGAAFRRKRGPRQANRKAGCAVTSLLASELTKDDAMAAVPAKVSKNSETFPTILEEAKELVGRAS

SMILES	isoTOP-ABPP ratio O60610_C1227 [1]; 231	isoTOP-ABPP ratio P23919_C163 ([2]; 200 μM, insitu, 231)	isoTOP-ABPP ratio P52597_C267 [3]; 231	isoTOP-ABPP ratio P57764_C268 [4]; 231	isoTOP-ABPP ratio Q14997_C1840 [5]; 231	isoTOP-ABPP ratio Q15084_C55 [6]	isoTOP-ABPP ratio, Q15084_C190 [6]	isoTOP-ABPP ratio Q15233_C145 [7]; 231	isoTOP-ABPP ratio Q99757_C90 [8]	isoTOP-ABPP ratio Q9Y277_C65 [9]; 231	isoTOP-ABPP ratio Q9Y696_C35 [10]	further results
COc1ccc(C2CC(c3cccs3)=NN2C(=O)CCl)cc1 (stereo not drawn) [compound 4]	–	–	–	–	–	–	–	–	–	–	–	isoTOP-ABPP reactivity O60610_C1227 DIAPH1 ([1]; 100 μM in situ 231): 1.6; isoTOP-ABPP reactivity P23919_C163 DTYMK ([2]; 100 μM in situ 231): 0.4; isoTOP-ABPP reactivity P52597_C267 HNRNPF ([3]; 100 μM in situ 231): 20.0; isoTOP-ABPP reactivity P57764_C268 GSDMD ([4]; 100 μM in situ 231): 20.0; isoTOP-ABPP reactivity Q14997_C1840 PSME4 ([5]; 100 μM in situ 231): 20.0; isoTOP-ABPP reactivity Q15084_C55 PDIA6 ([6]; 100 μM in situ 231): 4.9; isoTOP-ABPP reactivity Q15084_C190 PDIA6 ([6]; 100 μM in situ 231): 20.0; isoTOP-ABPP reactivity Q15233_C145 NONO ([7]; 100 μM in situ 231): 1.6; isoTOP-ABPP reactivity Q99757_C90 TXN2 ([8]; 100 μM in situ 231): 3.6; isoTOP-ABPP reactivity Q9Y277_C65 VDAC3 ([9]; 100 μM in situ 231): 4.7; isoTOP-ABPP reactivity Q9Y696_C35 CLIC4 ([10]; 100 μM in situ 231): 20.0
Cc1ccc(C=C(C#N)C(=O)NCCN2CCOCC2)cc1 [compound 41]	0.6	0.2	0.8	0.6	0.9	0.9	0.9	1.1	0.5	1.4	0.6	–
C=CC(=O)Nc1cc(F)c(N2CCN(C(=O)OC(C)(C)C)CC2)c(F)c1 [compound 38]	0.3	5.7	1.8	1.8	20.0	0.8	1.0	0.9	3.6	20.0	1.0	isoTOP-ABPP ratio P23919_C117 ([2]; 200 μM, insitu, 231): 4.4
C=CC(=O)N(Cc1cccnc1)c1cc(C(F)(F)F)cc(C(F)(F)F)c1 [compound 31]	0.6	–	1.2	–	–	0.7	1.0	0.7	1.4	–	0.6	isoTOP-ABPP ratio O60610_C1227 ([1]; ramos): 1.2; isoTOP-ABPP ratio P23919_C163 ([2]; 200 μM, insitu, ramos): 1.0; isoTOP-ABPP ratio P52597_C267 ([3]; ramos): 1.3; isoTOP-ABPP ratio P57764_C268 ([4]; ramos): 3.1; isoTOP-ABPP ratio Q14997_C1840 ([5]; ramos): 1.2; isoTOP-ABPP ratio Q15233_C145 ([7]; ramos): 0.8; isoTOP-ABPP ratio Q9Y277_C65 ([9]; ramos): 1.0
